ChEMBL document CHEMBL1129707, “Identification and biological activity of novel peptidomimetic gastrin/CCK-B receptor agonists” (Bioorg Med Chem Lett, 1996)

Columns and labels:
[1] = target: T1, Gastrin/cholecystokinin type B receptor (Rattus norvegicus, UniProt P30553); assay: Tested for displacement of [125I]-CCK-8 from Gastrin/Cholecystokinin type B receptor in rat brain.; type: tissue-based
T1 sequence (P30553 whole entry): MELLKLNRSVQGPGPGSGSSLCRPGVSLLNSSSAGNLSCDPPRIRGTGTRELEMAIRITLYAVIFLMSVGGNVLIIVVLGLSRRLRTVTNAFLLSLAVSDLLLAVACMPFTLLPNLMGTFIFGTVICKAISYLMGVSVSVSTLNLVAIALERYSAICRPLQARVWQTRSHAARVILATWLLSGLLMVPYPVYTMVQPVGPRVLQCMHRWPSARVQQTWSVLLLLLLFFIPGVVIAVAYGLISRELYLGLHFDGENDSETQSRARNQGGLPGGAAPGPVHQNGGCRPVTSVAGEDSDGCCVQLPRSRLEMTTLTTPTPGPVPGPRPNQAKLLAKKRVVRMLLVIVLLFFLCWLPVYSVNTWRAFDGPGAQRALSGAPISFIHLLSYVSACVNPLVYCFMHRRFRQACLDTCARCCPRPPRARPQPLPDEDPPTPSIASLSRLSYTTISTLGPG

[2] = target: T2, Cholecystokinin receptor type A (Rattus norvegicus, UniProt P30551); assay: Tested for displacement of [3H]-L-364,718 from Cholecystokinin type A receptor in rat pancreas.
T2 sequence (P30551 whole entry): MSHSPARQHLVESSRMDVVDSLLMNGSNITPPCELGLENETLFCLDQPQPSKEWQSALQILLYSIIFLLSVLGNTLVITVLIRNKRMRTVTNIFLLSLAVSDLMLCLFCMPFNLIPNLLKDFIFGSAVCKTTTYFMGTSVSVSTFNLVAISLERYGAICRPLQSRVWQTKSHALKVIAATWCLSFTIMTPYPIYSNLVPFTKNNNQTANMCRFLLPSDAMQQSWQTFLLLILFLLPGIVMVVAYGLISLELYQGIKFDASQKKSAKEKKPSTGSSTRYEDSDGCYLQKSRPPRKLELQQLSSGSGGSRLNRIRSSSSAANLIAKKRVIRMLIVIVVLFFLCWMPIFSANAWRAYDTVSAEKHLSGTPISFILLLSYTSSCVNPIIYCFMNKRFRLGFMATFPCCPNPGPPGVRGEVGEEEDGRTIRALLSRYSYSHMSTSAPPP

Structure (SMILES)	IC50 [1] [nM]	IC50 [2] [µM]
CCCC[C@H](NC(=O)Cc1c[nH]c2ccccc12)C(=O)N(CCc1ccccc1)CC(=O)O	165	–
CCCC[C@H](NC(=O)Cc1c[nH]c2ccccc12)C(=O)N(CCC1CCCCC1)CC(=O)N1CCCC1	146	> 10
CCCC[C@H](NC(=O)Cc1c[nH]c2ccccc12)C(=O)N(CCc1ccccc1)CC(=O)N1CCCC1C(=O)O (stereo partly specified)	300	–
CCCC[C@H](NC(=O)Cc1c[nH]c2ccccc12)C(=O)N(CCC1CCCCC1)CC(=O)O	370	> 10
CC(C)C[C@@H](C(=O)N[C@@H](CC(=O)O)C(=O)N[C@@H](Cc1ccccc1)C(N)=O)N1CC(=O)N[C@H](Cc2c[nH]c3ccccc23)C1=O	37.7	–
CC(C)(C)OC(=O)N1c2ccccc2C[C@@H]1C(=O)N1[C@@H](C(=O)N2Cc3ccccc3C[C@@H]2C(=O)N2CCC[C@@H]2C(=O)O)CC[C@H]1c1ccccc1	36	> 10
CC(C)(C)OC(=O)N1c2ccccc2C[C@@H]1C(=O)N1[C@@H](C(=O)N2CCc3ccccc3C2)CC[C@H]1c1ccccc1	52	> 10
CC(C)(C)OC(=O)N1c2ccccc2C[C@@H]1C(=O)N1[C@@H](C(=O)N2Cc3ccccc3C[C@@H]2C(N)=O)CC[C@H]1c1ccccc1	170	> 10
CC(C)(C)OC(=O)N1c2ccccc2C[C@@H]1C(=O)N1[C@@H](C(=O)N2Cc3ccccc3C[C@@H]2C(=O)O)CC[C@H]1c1ccccc1	39	> 10

The remaining lines, values ahead:

IC50 [1] [nM]	IC50 [2] [µM]	Structure (SMILES)
30.2	> 10	CCCC[C@H](NC(=O)Cc1c[nH]c2ccccc12)C(=O)N(CC(=O)N1CCC[C@H]1C(=O)O)CC1CCCCC1
0.94	> 10	O=C(Cc1c[nH]c2ccccc12)N[C@@H](Cc1ccccc1)C(=O)N(CCC1CCCCC1)CC(=O)N1CCC[C@H]1C(=O)O
34	–	CCCC[C@H](NC(=O)Cc1c[nH]c2ccccc12)C(=O)N(CCc1ccccc1)CC(=O)N1CCC[C@H]1C(=O)O
0.7	–	CCC[C@@H]1CCN(C(=O)[C@@H]2Cc3c[nH]c4cccc(c34)CC(=O)N2)[C@@H]1C(=O)N[C@@H](CC(=O)O)C(=O)N[C@@H](Cc1ccccc1)C(N)=O
27	> 10	CC(C)(C)OC(=O)N1c2ccccc2C[C@@H]1C(=O)N1[C@@H](C(=O)N2Cc3ccccc3C[C@@H]2C(=O)NCC(=O)O)CC[C@H]1c1ccccc1
2.3	> 10	CCCC[C@H](NC(=O)Cc1c[nH]c2ccccc12)C(=O)N(CCC1CCCCC1)CC(=O)N1CCC[C@H]1C(=O)O
35	> 10	CC(C)(C)OC(=O)N1c2ccccc2C[C@@H]1C(=O)N1[C@@H](C(=O)N2Cc3ccccc3C[C@@H]2CC(=O)O)CC[C@H]1c1ccccc1
0.25	> 10	CC(C)(C)OC(=O)N1c2ccccc2C[C@@H]1C(=O)N1[C@@H](C(=O)N2Cc3ccccc3C[C@@H]2C(=O)N2CCCC2C(=O)O)CC[C@H]1c1ccccc1 (stereo partly specified)
17	> 10	O=C(Cc1c[nH]c2ccccc12)N[C@@H](CCc1ccccc1)C(=O)N(CCC1CCCCC1)CC(=O)N1CCC[C@H]1C(=O)O
